Test results reported in patent publication US7192731B2, “Methods for efficient extraction of carotenoids using an esterase” (The State of Israel, Ministry of Agriculture & Rural …, priority 2001, dated 2007).

What was measured:
[1] = system: lipase; assay: Effect of CaCl2 and NaCl on lipase activity (deestrification of red-pepper carotenoids); type: biochemical; conditions: 150 mM NaCl without CaCl2
Description: The activity of lipase at pH 7.6 at 37.0° C. for 18 hours on the deestrification of red-pepper carotenoids was measured in the presence of CaCl2 and NaCl.

[2] = Enzymatic deesterification of paprika oleoresin carotenoids by lipases, HPLC; type: biochemical; conditions: similar assays, 37° C.
Description: HPLC was conducted on a Shimadzu LC-10 AT equipped with SCL-10A Shimadzu diode array detector. Photodiode array measurements of spectral properties from the individual peaks (from 260 to 540 nm) were determined at the upslope, apex and downslope. The column (Merck RP-18e 3.4×250 […], 5-μm particles) was used for HPLC separations. The peaks were detected at 450 and 474 nm.
Paprika oleoresin (20 mg) was mixed with TWEEN-20 (200 μl) or deoxycholate (100 mg) and 10 ml of H2O. The emulsion has been shaken at 37° C. for 24 hours. Extraction of carotenoids was performed by the addition of 4 ml of ethanol and 5 ml of hexane. The extraction with hexane was done repeatedly until no color could be observed in the extracts. The combined hexane extracts were washed with water (25 ml) and dried over anhydrous sodium sulfate for HPLC determination of the carotenoids.
Immobilized lipase from Candida rugosa (Sigma-Aldrich Corp., St Louis, Mo.). Following use in deesterification, the enzyme-bearing beads are recovered by precipitation at 15 K RPM, and stored at 4° C. until reuse.
Immobilized lipase beads may be recycled by precipitation, and reused. […] FIG. 8 compares the efficiency of deesterification with fresh, once-, and twice-recycled immobilized lipase, quantifying the efficient reuse of the immobilized enzyme with paprika oleoresin. […]

deesterification of paprika carotenoids compared with lipase amano 30 [2]	Molecule	deestrification [1]
–	[Cl-].[Na+] [NaCl]	87%
far poorer results	pancreatic lipase: pancreatic lipase from porcine, Sigma (protein, UniProt P00591 1-450, looked up) Pancreatic triacylglycerol …: SEVCFPRLGCFSDDAPWAGIVQRPLKILPWSPKDVDTRFLLYTNQNQNNYQELVADPSTITNSNFRMDRKTRFIIHGFIDKGEEDWLSNICKNLFKVESVNCICVDWKGGSRTGYTQASQNIRIVGAEVAYFVEVLKSSLGYSPSNVHVIGHSLGSHAAGEAGRRTNGTIERITGLDPAEPCFQGTPELVRLDPSDAKFVDVIHTDAAPIIPNLGFGMSQTVGHLDFFPNGGKQMPGCQKNILSQIVDIDGIWEGTRDFVACNHLRSYKYYADSILNPDGFAGFPCDSYNVFTANKCFPCPSEGCPQMGHYADRFPGKTNGVSQVFYLNTGDASNFARWRYKVSVTLSGKKVTGHILVSLFGNEGNSRQYEIYKGTLQPDNTHSDEFDSDVEVGDLQKVKFIWYNNNVINPTLPRVGASKITVERNDGKVYDFCSQETVREEVLLTLNPC	–
